In US10597388B2, “Pyridazinone herbicides” (FMC CORPORATION, priority 2014, dated 2020):

What was measured:
Experiment in all cases: Test E greenhouse herbicide test, pre- and postemergence
Format in all cases: in vivo
[1] = system: waterhemp (common waterhemp, Amaranthus rudis)
Summary of the method: (§1)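 Compounds in surfactant-containing solvent are applied to soil right after sowing (silt loam) and, in parallel, to 1- to 4-leaf plants in a peat-based medium. Weed control is scored visually on a 0 (none) to 100 (complete) scale at 14 to 21 d.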

[2] = system: johnsongrass (Sorghum halepense); conditions: Preemergence
Summary of the method: as §1

[3] = system: arrowleaf sida (Sida rhombifolia)
Summary of the method: as §1

[4] = system: surinam grass (Brachiaria decumbens); conditions: Preemergence
Summary of the method: as §1

[5] = system: horseweed (Conyza canadensis)
Summary of the method: as §1

[6] = system: crabgrass, Brazilian (Brazilian crabgrass, Digitaria horizontalis)
Summary of the method: as §1

[7] = system: velvetleaf (Abutilon theophrasti); conditions: Preemergence
Summary of the method: as §1

[8] = system: foxtail, giant (giant foxtail, Setaria faberii); conditions: Preemergence
Summary of the method: as §1

[9] = system: field bindweed (Convolvulus arvensis)
Summary of the method: as §1

[10] = system: crabgrass, large (large crabgrass, Digitaria sanguinalis); conditions: Preemergence
Summary of the method: as §1

[11] = system: nightshade (eastern black nightshade, Solanum ptycanthum); conditions: Preemergence
Summary of the method: as §1

[12] = system: ragweed (common ragweed, Ambrosia elatior)
Summary of the method: as §1

[13] = system: goosegrass (Eleusine indica); conditions: Preemergence
Summary of the method: as §1

[14] = system: pigweed, palmer (palmer pigweed, Amaranthus palmeri)
Summary of the method: as §1

[15] = system: dayflower (Virginia (VA) dayflower, Commelina virginica)
Summary of the method: as §1

[16] = system: momingglory (Ipomoea coccinea); conditions: Preemergence
Summary of the method: as §1

corn (Zea mays) = system: corn (Zea mays)
Summary of the method: as §1

[17] = 125 g ai/ha, Postemergence, scale 0 to 100 (0 no effect, 100 complete control)
[18] = 125 g ai/ha, Preemergence, scale 0 to 100 (0 no effect, 100 complete control)
[19] = 250 g ai/ha, Postemergence, scale 0 to 100 (0 no effect, 100 complete control)
[20] = Postemergence, 31 g ai/ha, visual, scale 0 no effect to 100 complete control
[21] = Preemergence, 31 g ai/ha, scale 0 to 100, 0 no effect, 100 complete control
[22] = Preemergence, 250 g ai/ha, visual, scale 0 no effect to 100 complete control
[23] = 31 g ai/ha, scale 0 to 100, 0 no effect, 100 complete control
[24] = 250 g ai/ha, visual, scale 0 no effect to 100 complete control
[25] = 62 g ai/ha, Postemergence, scale 0 to 100 (0 no effect, 100 complete control)
[26] = 62 g ai/ha, Preemergence, scale 0 to 100 (0 no effect, 100 complete control)
[27] = 125 g ai/ha, scale 0 to 100 (0 no effect, 100 complete control)
[28] = 62 g ai/ha, scale 0 to 100 (0 no effect, 100 complete control)

CC(=O)Oc1c(C)nn(C)c(=O)c1-c1c(C)cc(C)c2ccccc12 [Compound 153]
Plant response rating, Waterhemp [1, 17]: 50
Plant response rating, Waterhemp [1, 18]: 85
Plant response rating, Waterhemp [1, 19]: 75
Plant response rating, Waterhemp [1, 20]: 50
Plant response rating, Waterhemp [1, 21]: 60
Plant response rating, Waterhemp [1, 22]: 100
Plant response rating, Johnsongrass [2, 23]: 0
Plant response rating, Johnsongrass [2, 24]: 60
Plant response rating, Arrowleaf Sida [3, 25]: 50
Plant response rating, Arrowleaf Sida [3, 26]: 70
Plant response rating, Arrowleaf Sida [3, 17]: 40
Plant response rating, Arrowleaf Sida [3, 18]: 60
Plant response rating, Arrowleaf Sida [3, 19]: 40
Plant response rating, Arrowleaf Sida [3, 20]: 40
Plant response rating, Arrowleaf Sida [3, 21]: 50
Plant response rating, Arrowleaf Sida [3, 22]: 75
Plant response rating, Surinam Grass [4, 27]: 90
Plant response rating, Surinam Grass [4, 23]: 50
Plant response rating, Surinam Grass [4, 24]: 100
Plant response rating, Horseweed [5, 25]: 80
Plant response rating, Horseweed [5, 26]: 100
Plant response rating, Horseweed [5, 17]: 85
Plant response rating, Horseweed [5, 18]: 100
Plant response rating, Horseweed [5, 19]: 85
Plant response rating, Horseweed [5, 20]: 85
Plant response rating, Horseweed [5, 21]: 90
Plant response rating, Horseweed [5, 22]: 100
Plant response rating, Crabgrass, Brazil [6, 25]: 30
Plant response rating, Crabgrass, Brazil [6, 26]: 70
Plant response rating, Crabgrass, Brazil [6, 17]: 40
Plant response rating, Crabgrass, Brazil [6, 18]: 100
Plant response rating, Crabgrass, Brazil [6, 19]: 50
Plant response rating, Crabgrass, Brazil [6, 20]: 20
Plant response rating, Crabgrass, Brazil [6, 21]: 90
Plant response rating, Crabgrass, Brazil [6, 22]: 100
Plant response rating, Velvetleaf [7, 27]: 90
Plant response rating, Velvetleaf [7, 23]: 85
Plant response rating, Velvetleaf [7, 24]: 100
Plant response rating, Foxtail, Giant [8, 28]: 95
Plant response rating, Foxtail, Giant [8, 27]: 95
Plant response rating, Foxtail, Giant [8, 23]: 75
Plant response rating, Foxtail, Giant [8, 24]: 100
Plant response rating, Field Bindweed [9, 25]: 90
Plant response rating, Field Bindweed [9, 26]: 100
Plant response rating, Field Bindweed [9, 17]: 100
Plant response rating, Field Bindweed [9, 18]: 100
Plant response rating, Field Bindweed [9, 19]: 95
Plant response rating, Field Bindweed [9, 20]: 80
Plant response rating, Field Bindweed [9, 21]: 90
Plant response rating, Field Bindweed [9, 22]: 100
Plant response rating, Crabgrass, Large [10, 28]: 70
Plant response rating, Crabgrass, Large [10, 27]: 75
Plant response rating, Crabgrass, Large [10, 23]: 70
Plant response rating, Crabgrass, Large [10, 24]: 80
Plant response rating, Nightshade [11, 27]: 95
Plant response rating, Nightshade [11, 23]: 70
Plant response rating, Nightshade [11, 24]: 100
Plant response rating, Ragweed [12, 25]: 70
Plant response rating, Ragweed [12, 17]: 80
Plant response rating, Ragweed [12, 18]: 95
Plant response rating, Ragweed [12, 19]: 90
Plant response rating, Ragweed [12, 20]: 75
Plant response rating, Ragweed [12, 21]: 100
Plant response rating, Ragweed [12, 22]: 100
Plant response rating, Goosegrass [13, 28]: 40
Plant response rating, Goosegrass [13, 27]: 60
Plant response rating, Goosegrass [13, 23]: 40
Plant response rating, Goosegrass [13, 24]: 75
Plant response rating, Pigweed, Palmer [14, 25]: 20
Plant response rating, Pigweed, Palmer [14, 17]: 30
Plant response rating, Pigweed, Palmer [14, 18]: 60
Plant response rating, Pigweed, Palmer [14, 19]: 40
Plant response rating, Pigweed, Palmer [14, 20]: 20
Plant response rating, Pigweed, Palmer [14, 21]: 50
Plant response rating, Pigweed, Palmer [14, 22]: 95
Plant response rating, Dayflower, VA [15, 25]: 90
Plant response rating, Dayflower, VA [15, 26]: 85
Plant response rating, Dayflower, VA [15, 17]: 90
Plant response rating, Dayflower, VA [15, 18]: 90
Plant response rating, Dayflower, VA [15, 19]: 95
Plant response rating, Dayflower, VA [15, 20]: 85
Plant response rating, Dayflower, VA [15, 21]: 80
Plant response rating, Dayflower, VA [15, 22]: 90
Plant response rating, Morningglory [16, 27]: 90
Plant response rating, Morningglory [16, 23]: 85
Plant response rating, Morningglory [16, 24]: 100
Plant response rating, Corn (corn (Zea mays); [25]): 0
Plant response rating, Corn (corn (Zea mays); [26]): 0
Plant response rating, Corn (corn (Zea mays); [17]): 0
Plant response rating, Corn (corn (Zea mays); [18]): 10
Plant response rating, Corn (corn (Zea mays); [19]): 0
Plant response rating, Corn (corn (Zea mays); [20]): 0
Plant response rating, Corn (corn (Zea mays); [21]): 0
Plant response rating, Corn (corn (Zea mays); [22]): 20
